Test results taken from PubChem BioAssay (NCI).
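Grown in 96-well plates, cells were treated for 48 hours with each compound at five concentrations. Insufficient inhibition: endpoint recorded as highest concentration tested. At the TGI there is no net growth.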

Tests used:
Experiment in all cases: NCI-60 cell line screen, 48 h
[1] = test system: 786-0 renal
[2] = test system: A498 renal
[3] = test system: A549 NSCLC
[4] = test system: ACHN renal
[5] = test system: CAKI-1 renal
[6] = test system: CCRF-CEM leukemia
[7] = test system: COLO 205 colon
[8] = test system: DU-145 prostate
[9] = test system: EKVX NSCLC
[10] = test system: HCC-2998 colon
[11] = test system: HCT-116 colon
[12] = test system: HCT-15 colon
[13] = test system: HL-60(TB) leukemia
[14] = test system: HOP-62 NSCLC
[15] = test system: HOP-92 NSCLC
[16] = test system: HS 578T breast
[17] = test system: IGROV1 ovarian
[18] = test system: K-562 leukemia
[19] = test system: KM12 colon
[20] = test system: LOX IMVI melanoma
[21] = test system: M14 melanoma
[22] = test system: MALME-3M melanoma
[23] = test system: MCF7 breast
[24] = test system: MDA-MB-231 breast
[25] = test system: MDA-MB-435
[26] = test system: MDA-N
[27] = test system: MOLT-4 leukemia
[28] = test system: NCI-H23 lung
[29] = test system: NCI-H460 lung
[30] = test system: NCI-H522 lung
[31] = test system: OVCAR-3 ovarian
[32] = test system: OVCAR-4 ovarian
[33] = test system: OVCAR-5 ovarian
[34] = test system: PC-3 prostate
[35] = test system: RPMI-8226 leukemia
[36] = test system: RXF 393 renal
[37] = test system: SF-268 CNS
[38] = test system: SF-295 CNS
[39] = test system: SF-539 CNS
[40] = test system: SK-MEL-2 melanoma
[41] = test system: SK-MEL-28 melanoma
[42] = test system: SK-MEL-5 melanoma
[43] = test system: SK-OV-3 ovarian
[44] = test system: SN12C renal
[45] = test system: SNB-19 CNS
[46] = test system: SNB-75 CNS
[47] = test system: SR leukemia
[48] = test system: SW-620 colon
[49] = test system: T-47D breast
[50] = test system: TK-10 renal
[51] = test system: U251 CNS
[52] = test system: UACC-257 melanoma
[53] = test system: UACC-62 melanoma
[54] = test system: UO-31 renal
[55] = test system: HT29 colon
[56] = test system: NCI-H226 lung
[57] = test system: NCI/ADR-RES ovarian
[58] = test system: OVCAR-8 ovarian

With CCOC(=O)C(=CNC(=S)c1ccncc1)C(=O)OCC as the molecule, how does the TGI [1] read?
Its TGI is greater than 100 µM.

And the TGI [2]?
The TGI was greater than 100 µM.

And the TGI [3]?
Its TGI is greater than 100 µM.

What about the TGI [4] of the same molecule?
Its TGI is greater than 100 µM.

What about the TGI [5] of the same molecule?
The TGI was greater than 100 µM.

And the TGI [6]?
Its TGI is greater than 100 µM.

And the TGI [7]?
The TGI was greater than 100 µM.

What about the TGI [8] of the same molecule?
The TGI was greater than 100 µM.

And the TGI [9]?
The TGI was greater than 100 µM.

What about the TGI [10] of the same molecule?
The TGI was greater than 100 µM.

And the TGI [11]?
Its TGI is greater than 100 µM.

What about the TGI [12] of the same molecule?
The TGI was greater than 100 µM.

And the TGI [13]?
Its TGI is greater than 100 µM.

What about the TGI [14] of the same molecule?
Its TGI is greater than 100 µM.

And the TGI [15]?
The TGI was greater than 100 µM.

What about the TGI [16] of the same molecule?
Its TGI is greater than 100 µM.

What about the TGI [17] of the same molecule?
The TGI was greater than 100 µM.

And the TGI [18]?
Its TGI is greater than 100 µM.

What about the TGI [19] of the same molecule?
The TGI was greater than 100 µM.

And the TGI [20]?
Its TGI is greater than 100 µM.

What about the TGI [21] of the same molecule?
The TGI was greater than 100 µM.

And the TGI [22]?
Its TGI is greater than 100 µM.

What about the TGI [23] of the same molecule?
Its TGI is greater than 100 µM.

And the TGI [24]?
Its TGI is greater than 100 µM.

And the TGI [25]?
Its TGI is greater than 100 µM.

What about the TGI [26] of the same molecule?
The TGI was greater than 100 µM.

What about the TGI [27] of the same molecule?
The TGI was greater than 100 µM.

What about the TGI [28] of the same molecule?
The TGI was greater than 100 µM.

And the TGI [29]?
The TGI was greater than 100 µM.

What about the TGI [30] of the same molecule?
Its TGI is greater than 100 µM.

What about the TGI [31] of the same molecule?
The TGI was greater than 100 µM.

What about the TGI [32] of the same molecule?
Its TGI is greater than 100 µM.

What about the TGI [33] of the same molecule?
Its TGI is greater than 100 µM.

What about the TGI [34] of the same molecule?
The TGI was greater than 100 µM.

What about the TGI [35] of the same molecule?
The TGI was greater than 100 µM.

What about the TGI [36] of the same molecule?
The TGI was greater than 100 µM.

What about the TGI [37] of the same molecule?
The TGI was greater than 100 µM.

What about the TGI [38] of the same molecule?
Its TGI is greater than 100 µM.

And the TGI [39]?
The TGI was greater than 100 µM.

And the TGI [40]?
Its TGI is greater than 100 µM.

And the TGI [41]?
The TGI was greater than 100 µM.

And the TGI [42]?
Its TGI is greater than 100 µM.

What about the TGI [43] of the same molecule?
Its TGI is greater than 100 µM.

And the TGI [44]?
The TGI was greater than 100 µM.

And the TGI [45]?
Its TGI is greater than 100 µM.

What about the TGI [46] of the same molecule?
The TGI was greater than 100 µM.

What about the TGI [47] of the same molecule?
Its TGI is greater than 100 µM.

And the TGI [48]?
Its TGI is greater than 100 µM.

And the TGI [49]?
Its TGI is greater than 100 µM.

And the TGI [50]?
Its TGI is greater than 100 µM.

What about the TGI [51] of the same molecule?
Its TGI is greater than 100 µM.

What about the TGI [52] of the same molecule?
The TGI was greater than 100 µM.

And the TGI [53]?
The TGI was greater than 100 µM.

What about the TGI [54] of the same molecule?
The TGI was greater than 100 µM.

What does the source list for CC1(C)COC(c2ccc(C(=O)c3ccc(Cl)cc3)cc2)=N1?
TGI [1]: > 100 µM; TGI [3]: > 100 µM; TGI [4]: > 100 µM; TGI [5]: > 100 µM; TGI [6]: > 100 µM; TGI [7]: > 100 µM; TGI [8]: > 100 µM; TGI [9]: > 100 µM; TGI [10]: > 100 µM; TGI [11]: > 100 µM; TGI [12]: > 100 µM; TGI [13]: > 100 µM; TGI [14]: > 100 µM; TGI [15]: > 100 µM; TGI [16]: > 100 µM; TGI [55]: > 100 µM; TGI [17]: > 100 µM; TGI [18]: > 100 µM; TGI [19]: > 100 µM; TGI [20]: > 100 µM; TGI [21]: > 100 µM; TGI [22]: > 100 µM; TGI [23]: > 100 µM; TGI [24]: > 100 µM; TGI [25]: > 100 µM; TGI [26]: > 100 µM; TGI [27]: > 100 µM; TGI [56]: > 100 µM; TGI [28]: > 100 µM; TGI [29]: > 100 µM; TGI [30]: > 100 µM; TGI [57]: > 100 µM; TGI [31]: > 100 µM; TGI [33]: > 100 µM; TGI [58]: > 100 µM; TGI [34]: > 100 µM; TGI [35]: > 100 µM; TGI [36]: > 100 µM; TGI [37]: > 100 µM; TGI [38]: > 100 µM; TGI [39]: > 100 µM; TGI [40]: > 100 µM; TGI [41]: > 100 µM; TGI [42]: 30.5 µM; TGI [43]: > 100 µM; TGI [44]: > 100 µM; TGI [45]: > 100 µM; TGI [46]: > 100 µM; TGI [48]: > 100 µM; TGI [51]: > 100 µM; TGI [52]: 64.9 µM; TGI [53]: > 100 µM; TGI [54]: > 100 µM

With CCOC1CCC2C(CCC(/C=C/c3ccc(O)c4ncccc34)N2C)C1 (configuration not stated) as the molecule, how does the TGI [1] read?
Its TGI is greater than 100 µM.

What about the TGI [3] of the same molecule?
Its TGI is greater than 100 µM.

And the TGI [4]?
Its TGI is greater than 100 µM.

And the TGI [6]?
The TGI was greater than 100 µM.

And the TGI [7]?
Its TGI is 11.9 µM.

What about the TGI [8] of the same molecule?
The TGI was greater than 100 µM.

And the TGI [9]?
Its TGI is 90.4 µM.

What about the TGI [10] of the same molecule?
Its TGI is greater than 100 µM.

What about the TGI [12] of the same molecule?
The TGI was greater than 100 µM.

What about the TGI [13] of the same molecule?
The TGI was greater than 100 µM.

What about the TGI [14] of the same molecule?
Its TGI is greater than 100 µM.

And the TGI [15]?
The TGI was 59.7 µM.

What about the TGI [16] of the same molecule?
The TGI was 51.6 µM.

And the TGI [55]?
The TGI was greater than 100 µM.

What about the TGI [17] of the same molecule?
The TGI was greater than 100 µM.

And the TGI [18]?
The TGI was greater than 100 µM.

And the TGI [19]?
Its TGI is 95.2 µM.

And the TGI [21]?
Its TGI is greater than 100 µM.

And the TGI [22]?
Its TGI is greater than 100 µM.

And the TGI [23]?
Its TGI is greater than 100 µM.

And the TGI [26]?
Its TGI is greater than 100 µM.

What about the TGI [27] of the same molecule?
The TGI was greater than 100 µM.

And the TGI [56]?
Its TGI is greater than 100 µM.

And the TGI [28]?
Its TGI is 66 µM.

And the TGI [29]?
The TGI was greater than 100 µM.

And the TGI [30]?
Its TGI is 5.89 µM.

And the TGI [57]?
Its TGI is greater than 100 µM.

And the TGI [33]?
The TGI was greater than 100 µM.

And the TGI [58]?
Its TGI is greater than 100 µM.

What about the TGI [34] of the same molecule?
Its TGI is greater than 100 µM.

And the TGI [35]?
The TGI was greater than 100 µM.

And the TGI [37]?
The TGI was greater than 100 µM.

What about the TGI [38] of the same molecule?
Its TGI is greater than 100 µM.

And the TGI [39]?
Its TGI is 29.2 µM.

And the TGI [41]?
The TGI was greater than 100 µM.

And the TGI [42]?
The TGI was greater than 100 µM.

What about the TGI [44] of the same molecule?
Its TGI is greater than 100 µM.

What about the TGI [45] of the same molecule?
The TGI was greater than 100 µM.

And the TGI [47]?
Its TGI is greater than 100 µM.

What about the TGI [48] of the same molecule?
The TGI was greater than 100 µM.

And the TGI [49]?
Its TGI is 62 µM.

What about the TGI [50] of the same molecule?
Its TGI is greater than 100 µM.

And the TGI [51]?
The TGI was greater than 100 µM.

And the TGI [53]?
Its TGI is greater than 100 µM.

And the TGI [54]?
Its TGI is greater than 100 µM.
